Test results published in patent US4999366A, “Isoxazolidine-3,5-diones, pharmaceutical compositions and method of treatment” (The North Carolina Central Univ., priority 1990, dated 1991).
Like-named read-outs stand apart in the source and are kept apart here.

Legend:
[1] = tested on: serum cholesterol; assay: Serum cholesterol in normal CF1 mice (Example 10); assay type: in vivo, CF1 male mice; conditions: Mus musculus, 20 mg/kg/day ip
Protocol: (§1) The ten compounds listed in Table II below were tested for their hypolipidemic activity in CF1 mice.
(§2) Compounds A-J as defined above, were suspended in an aqueous 1percent carboxymethylcellulose (CMC) solution and homogenized. Each of the so prepared compounds were administered to a group of six CF1 male mice, each weighing approximately 25 grams, intraperitioneally for 16 days. Each of these compounds were provided in a dosage of 20 mg/kg/day ip. On Days 9 and 16 blood was obtained by tail vein bleeding. The blood serum so obtained was separated by centrifugation for three minutes. Serum cholesterol levels were determined by a modification of the Liebermann-Burchard reaction (Ness, Clin. Chim. Acta., Vol. 10, 229[1964]). Serum triglyceride levels were determined on Day 16 by use of the Fisher, Hycel Triglyceride Test Kit.
(§3) In addition to the above-described treated mice, an untreated control group of six mice were similarly tested on Days 9 and 16 to determine their serum cholesterol and trigylceride blood levels. Based on the results obtained for the untreated control group, the percent control, based on serum cholesterol and serum triglyceride levels of the treated mice compared to the untreated mice, was obtained. Table III reports this percent control, including standard deviation, indicating the level of confidence of these numbers.

[2] = tested on: serum triglyceride; assay: Serum triglyceride in normal CF1 mice (Example 10); assay type: in vivo, CF1 male mice; conditions: Mus musculus, 384 h, 20 mg/kg/day ip, Day 16, ± standard deviation, read-out: Serum Triglyceride, Day 16 (percent control)
Protocol: as §1, §2, §3

[3] = tested on: serum cholesterol; assay: Serum cholesterol in hyperlipidemic mice on atherogenic diet (Example 11); assay type: in vivo, CF1 male mice; conditions: hyperlipidemic CF1 mice, 20 mg/kg/day ip, Day 14, from 375 mg %
Protocol: (§4) A group of six CF^1 male mice (about 25 g) was placed on a commercial diet (U.S. Biochemical Corporation BAsal Atherogenic Test Diet) which produced a "hyperlipidemic" state. That is, the average serum cholesterol level in the group of treated mice was raised from 122 to 375 mg % and triglyceride levels were raised from 137 to 367 mg/dl.
(§5) Upon reaching these hyperlipidemic levels, the mice were administered Compound D in a concentration of 20 mg/kg/day intraperitoneally for 14 days while continuing the diet. On Day 14, serum cholesterol and serum triglyceride levels were measured in accordance with the procedure of Example 10.

[4] = tested on: serum triglyceride; assay: Serum triglyceride in hyperlipidemic mice on atherogenic diet (Example 11); assay type: in vivo, CF1 male mice; conditions: hyperlipidemic CF1 mice, 20 mg/kg/day ip, Day 14, from 367 mg/dl
Protocol: as §4, §5

[5] = tested on: serum triglyceride; assay: Serum triglyceride in normal rats (Example 12); assay type: in vivo, Sprague-Dawley male rats; conditions: 20 mg/kg/day orally
Protocol: (§6) A solution of Compound D, 2-(3,4,5-trimethoxybenzoyl)-4,4-diethylisoxazolidine-3,5-dione, was suspended in an aqueous solution of 1% CMC, homogenized and administered orally to six Sprague-Dawley male rats, which each weighed approximately 350 grams. Similarly, six Sprague-Dawley male rats of approximately the same weight were administered similar volumes of the same aqueous 1% CMC solution without the active agent, Compound D, also orally. In each case, administration was by intubation needle at 20 mg/kg/day for 14 days. In addition, as a control, a similar group of six male Sprague-Dawley rats were untreated.
(§7) On Days 7 and 14, blood was obtained from each of the rats of the three groups by tail vein bleeding. The blood obtained was separated by centrifugation for three minutes. Serum cholesterol and triglyceride levels were determined in accordance with the procedure of Example 10.

[6] = tested on: serum cholesterol; assay: Serum cholesterol in normal rats (Example 12); assay type: in vivo, Sprague-Dawley male rats; conditions: 20 mg/kg/day orally
Protocol: as §6, §7

[7] = tested on: plasma lipid level; conditions: rats; cited from earlier work
[8] = 216 h, Day 9, ± standard deviation, read-out: Serum Cholesterol, Day 9 (percent control)
[9] = 384 h, Day 16, ± standard deviation, read-out: Serum Cholesterol, Day 16 (percent control)

SMILES	response vs control in vivo at 20 mg/kg/day [1, 8]	response vs control in vivo at 20 mg/kg/day [1, 9]	response vs control in vivo at 20 mg/kg/day [2]	also measured
C=C(C)N1OC(=O)C(CC)(CC)C1=O [A]	70 ± 7%	75 ± 4%	71 ± 6%	–
C=C(c1ccccc1)N1OC(=O)C(CC)(CC)C1=O [B, 2-(1-phenylethenyl)-4,4-diethylisoxazolidine-3,5-dione]	71 ± 5%	63 ± 6%	71 ± 4%	–
CCC1(CC)C(=O)ON(C2(N3OC(=O)C(CC)(CC)C3=O)CCCCC2)C1=O [C, 1,1-bis-[2-(4,4-diethylisoxazolidine-3,5-dione)]cyclohexane]	86 ± 7%	73 ± 7%	77 ± 9%	–
CCC1(CC)C(=O)ON(C(=O)c2cc(OC)c(OC)c(OC)c2)C1=O [Compound D, 2-(3,4,5-trimethoxybenzoyl)-4,4-diethylisoxazolidine-3,5-dione]	82 ± 6%	51 ± 5%	66 ± 6%	serum cholesterol level after treatment [3]: 150 mg %; serum cholesterol remaining, percent of pre-treatment level [3]: 40%; serum triglyceride level after treatment [4]: 187 mg/dL; serum triglyceride level remaining, percent of pre-treatment level [4]: 51%; average serum triglyceride level compared to control, Day 7 ([5]; Day 7): 64%; serum triglyceride level compared to control, Day 14 ([5]; Day 14): 43%; serum cholesterol level compared to control rats, Day 7 ([6]; Day 7): 77%; serum cholesterol level compared to control rats, Day 14 ([6]; Day 14): 61%
CCC1(CC)C(=O)ON(C(=O)c2ccccc2)C1=O [E, 2-benzoyl-4,4-diethylisoxazolidine-3,5-dione]	77 ± 5%	53 ± 6%	63 ± 7%	–
CCC1(CC)C(=O)ON(C(C)(C)N2OC(=O)C(CC)(CC)C2=O)C1=O [F, 2,2-bis-[2-(4,4-diethylisoxazolidine-3,5-dione)]propane]	95 ± 4%	57 ± 6%	68 ± 8%	–
CCC1(CC)C(=O)ON(C(=O)c2ccc(OC)c(OC)c2)C1=O [G, 2-(3,4-dimethoxybenzoyl)-4,4-diethylisoxazolidine-3,5-dione]	81%	77%	84%	–
CCC1(CC)C(=O)ON(C(=O)c2ccc(OC)cc2)C1=O [H, 2-(4-methoxybenzoyl)-4,4-diethylisoxazolidine-3,5-dione]	89%	62%	63%	–
CCC1(CC)C(=O)ON(C(=O)c2ccc(C)cc2)C1=O [I, 2-(4-methylbenzoyl)-4,4-diethylisoxazolidine-3,5-dione]	73%	46%	86%	–
CCC1(CC)C(=O)ON(C(=O)c2ccc(Cl)cc2)C1=O [J, 2-(4-chlorobenzoyl)-4,4-diethylisoxazolidine-3,5-dione]	64%	45%	76%	–
O=C(O)c1cc(=O)[nH]c(=O)[nH]1 [orotic acid]	–	–	–	plasma lipid level [7]: decrease the plasma lipid level in rats
